The test system of one series is Cell A T cells (iCasp9). Nature of the series: In vivo Cell A response to rimiducid in NSG mice (flow cytometry of spleens). More on the design: species or system NSG mouse. The conditions noted are these: 24 hours after rimiducid 5 mg/kg i.p.; 42±1.1% in untreated mice; p<0.0001. Here is the method:
16 mice received an i.v. injection of 1×10^7 Cell A T cells on Day 0 as outlined above. Forty eight hours later, eight of the mice were injected i.p. with rimiducid at 5 mg/kg to evaluate activation of iCasp9 and apoptosis of the Cell A T cells; the other eight mice were left untreated. […] Thus, the iCasp9 encoded within Cell A represents a functioning safety switch that can be triggered in vivo to eliminate Cell A cells.
(A flow cytometer gives signals particle by particle.)

Series [1] relates to CD3+ΔCD19+ cells (iCasp9+ T cells). Nature of the series: Phase I clinical trial of allodepleted T cells transduced with inducible caspase-9 suicide gene after haploidentical stem cell transplantation. The class given is in vivo, human. An excerpt: This example presents results of a phase 1 clinical trial using an alternative suicide gene strategy. Briefly, donor peripheral blood mononuclear cells were co-cultured with recipient irradiated EBV-transformed lymphoblastoid cells (40:1) for 72 hrs, allodepleted with a CD25 immunotoxin and then transduced with a retroviral supernatant carrying the iCasp9 suicide gene and a selection marker (ΔCD19); ΔCD19 allowed enrichment to >90% purity via immunomagnetic selection.
Patients developing grade 1 GvHD were treated with 0.4 mg/kg AP1903 as a 2-hour infusion. Protocols for administration of AP1903 to patients grade 1 GvHD were established as follows. Patients developing GvHD after infusion of allodepleted T cells are biopsied to confirm the diagnosis and receive 0.4 mg/kg of AP1903 as a 2 h infusion. […] Patients developing grades 2-4 GvHD were administered standard systemic immunosuppressive therapy per institutional guidelines, in addition to the AP1903 dimerizer drug.
Instructions for preparation and infusion: AP1903 for injection is obtained as a concentrated solution of 2.33 ml in a 3 ml vial, at a concentration of 5 mg/ml, (i.e., […] per vial). Prior to administration, the calculated dose was diluted to 100 mL in 0.9% normal saline for infusion. AP1903 for injection (0.4 mg/kg) in a volume of 100 ml was administered via IV infusion over 2 hours, using a non-DEHP, non-ethylene oxide sterilized infusion set and infusion pump.
Three patients received iCasp9^+ T cells after haplo-CD34^+ stem cell transplantation (SCT), at dose levels between about 1×10^6 to about 3×10^6 cells/kg.
Infused T cells were detected in vivo by flow cytometry (CD3^+ΔCD19^+) or qPCR as early as day 7 after infusion, with a maximum fold expansion of 170±5 (day 29±9 after infusion).

For series [2] the following is noted: cited from earlier work.
Series [3] relates to Cell A T cells (iCasp9 suicide gene). As to the kind of experiment: Overnight culture of spleen and bone marrow cells from Cell A-treated animals with or without rimiducid. The format is cell-based, NSG mouse. The conditions noted are these: 10 nM rimiducid overnight; p<0.05. Here is the method: A fraction of spleen and bone marrow cells were isolated from the Cell A-treated animals as analyzed above, and were cultured overnight with or without 10 nM rimiducid in order to determine the sensitivity of the suicide switch.

For series [4], the system named is inducible caspase-9 expressing T cells. Nature of the series: CASPALLO and DOTTI trials: AP1903 given to subjects treated with T cells containing the iCaspase-9 suicide switch. The class given is in vivo, human. Here is the method: The DOTTI trial is a follow-up study to the CASPALLO trial. Three subjects subsequently developed Grade I & II acute GVHD and were treated with a single dose of the dimerizing drug AP1903. Four subjects are alive at a median of 476 days after transplant (range 278-674 days), and who had received AP1903.

The subject of series [5] is T cells transduced with the PRAME-TCR in combination with the iCasp9. As to the kind of experiment: PRAME reactivity of T cells transduced with PRAME-TCR in combination with iCasp9 after AP1903 treatment. The format is cell-based, human. The settings on record: 100 nM AP1903 for 18 h (overnight). The method, then: The TCRAV and TCRBV gene usage of clone AAV54 (also called clone 54 or HSS1) was determined using reverse transcriptase (RT)-PCR and sequencing^5. […]
FIG. 12, Different retroviral vectors encoding for the PRAME-TCR were transduced into virus specific T cells and the reactivity is measured against target cells loaded with different concentrations of the PRAME peptide and against two melanoma cell-lines: FM6 positive for HLA-A2 and PRAME, and M13046/2 positive for HLA-A2 but negative for PRAME. […]
FIG. 15 Different retroviral vectors encoding for the PRAME-TCR were transduced into virus specific T cells and the reactivity was measured against target cells (T2 cells) loaded with PRAME peptide and two PRAME positive and HLA-A2 positive melanoma cell-lines: 518.A2 and FM6, and one PRAME negative but HLA-A2 positive melanoma cell line M13046/2. […]

In the next series the test system is cells. As to the kind of experiment: Amount of AP1903 needed in vitro for effective signaling of cells. The class given is cell-based. Here is the method: The fixed dose of AP1903 for injection used, for example, may be 0.4 mg/kg intravenously infused over 2 hours. The amount of AP1903 needed in vitro for effective signaling of cells is about 10-100 nM (MW: 1412 Da). This equates to 14-140 μg/L or ˜0.014-0.14 mg/kg ([…]). The dosage may vary according to the application, and may, in certain examples, be more in the range of 0.1-10 nM, or in the range of 50-150 nM, 10-200 nM, 75-125 nM, 100-500 nM, 100-600 nM, 100-700 nM, 100-800 nM, or 100-900 nM. Doses up to 1 mg/kg were well-tolerated in the Phase I study of AP1903 described above.

The test system of a further series is Ewing sarcoma cell lines. As to the kind of experiment: HLA-class I expression of Ewing sarcoma cell lines after interferon treatment. The class given is cell-based, human. The conditions noted are these: 48 h, 300 IU/ml IFN-alpha or 100 IU/ml IFN-gamma.
The test system of series [6] is neuroblastoma (NB) cell lines. Nature of the series: HLA-class I expression of neuroblastoma cell lines after interferon treatment. The format is cell-based, human. The settings on record: 48 h, 300 IU/ml IFN-α or 100 IU/ml IFN-γ.

Entries after “also recorded” stand apart in the source; their conditions may differ.

In the case of `CC[C@H](C(=O)N1CCCC[C@H]1C(=O)O[C@H](CCc1ccc(OC)c(OC)c1)c1cccc(OCC(=O)NCCNC(=O)COc2cccc([C@@H](CCc3ccc(OC)c(OC)c3)OC(=O)[C@@H]3CCCCN3C(=O)[C@@H](CC)c3cc(OC)c(OC)c(OC)c3)c2)c1)c1cc(OC)c(OC)c(OC)c1` (relative stereo) [AP1903, 2-Piperidinecarboxylic acid, 1-[(2S)-1-oxo-2-(3,4,5-trimethoxyphenyl)butyl]-, 1,2-ethanediylbis [imino(2-oxo-2,1-ethanediyl)oxy-3,1-phenylene[(1R)-3-(3,4-dimethoxyphenyl)propylidene]] ester, [2S-[1(R*),2R*[S*[S*[1(R*),2R*]]]]]-(9CI)], the “human T cells in spleen that were Vβ1+” value with Cell A T cells (iCasp9) is given as 7.3±0.2%. The “resolution of skin and liver aGvHD” value in series [1] (after AP1903 administration) was no more than 24 h. Also, in [1] (within 30 minutes of infusion, two patients with grade I/II aGvHD, 0.4 mg/kg as 2-hour infusion), the “ablation of CD3+ΔCD19+ cells” value was greater than 90%. Moreover, in series [1] (within 24 hours), the “further reduction of CD3+ΔCD19+ cells” value was “further log reduction”. The well-tolerated doses result in series [2] (Phase I study) was “up to 1 mg/kg”. Also, the “adverse event considered possibly related to AP1903” value in [2] (human, in vivo, 1 mg/kg) is given as “vasodilatation”. Also, in series [2] (human, in vivo), the “AP1903 plasma levels versus dose” value is given as “directly proportional to dose”, the “incidence of adverse events” value is “very low”, the serious adverse events result is reported as “No serious adverse events” and the “severity of adverse events” value is “mild”. In addition, in [3], the “fraction of Vβ1+ T cells recovered from spleen and bone marrow” value is “significantly reduced”. In [4] (30 minutes from the end of a 2 hour intravenous infusion, CASPALLO trial), the “elimination of inducible caspase-9 expressing T cells” value is recorded as no less than 90%. In addition, the “adverse events associated with AP1903” value in series [4] (CASPALLO and DOTTI trials) is “No adverse events; also recorded: no immediate or delayed adverse events”. Also, the “acute GVHD after administration of AP1903” value in series [4] (four subjects, CASPALLO trial) is listed as “rapidly abrogated”. Besides, the “PRAME specific reactivity of T cells transduced with PRAME-TCR and iCasp9 after AP1903” value in [5] is reported as “abrogated”. In addition, in the series on cells, the “amount of AP1903 needed for effective signaling, converted to dose” value was 0.014 to 0.14 mg/kg and the “amount of AP1903 needed in vitro for effective signaling of cells” value is 10 to 100 nM. In addition, in the series with cells (MW 1412 Da), the “amount of AP1903 needed in vitro for effective signaling of cells, converted” value was in the range of 14 to 140 µg/L.

B1: IFN-gamma: interferon used to treat tumor cell lines for 48 h (protein, UniProt P01579 24-161, looked up)
Interferon gamma: QDPYVKEAENLKKYFNAGHSDVADNGTLFLGILKNWKEESDRKIMQSQIVSFYFKLFKNFKDDQSIQKSVETIKEDMNVKFFNSNKKKRDDFEKLTNYSVTDLNVQRKAIHELIQVMAELSPAAKTGKRKRSQMLFRG
Turning to B1, the “HLA-class I expression on the cell surface” value (in the series with Ewing sarcoma cell lines; in series [6]) was “increased” in each case.

The record behind these values is US20160263155A1, “T CELL RECEPTORS DIRECTED AGAINST THE PREFERENTIALLY EXPRESSED ANTIGEN OF MELANOMA AND USES THEREOF” (LEIDEN UNIVERSITY MEDICAL CENTER, priority 2015, published 2016).
